Measured values reported in US20200368211A1, “INHIBITION OF GAMMA-GLUTAMYLTRANSFERASE AND GLUTATHIONE CATABOLISM TO ENHANCE THE EFFICACY OF NF-KB SIGNALLING PATHWAY INHIBITORS” (UNIVERSITAET HEIDELBERG, priority 2017, published 2020).
“Also recorded” adds a separate entry of the source.

What was measured:
[1] = human plasma, stated as achievable; cited from earlier work
MEC1 cells [2] = assay: MTT cell proliferation assay, MEC1 cells; format: cell-based, human; settings: for Effect of auranofin and BSO low-dose combination on activity of NF-κB inhibitors, MEC1: auranofin 0.25-0.5 μM plus BSO 1.25-10 μM with BAY 11-7082 or EF24
Protocol: (§1) For metabolic activity assays, here MTT-assays, cell density was 3×10^4 cells per well (96 well plate). For ROS/superoxide detection assays cell density was 1×10^5 per tube (volume 1 ml). For NF-κB family member activation assays nuclear cell extracts were used (9×10^6 cells/6 ml volume in 6 well plates). The MTT or XTT assay is the most reliable for assessment of cell growth. In principal all assays are based on staining of viable cells after treatment. Cytotoxic effects in cell lines may also be assessed by [^3H] thymidine incorporation (see below). Cell proliferation was assessed by the MTT assay. […] The plates were incubated for 72 h under standard conditions. After addition of 15 μl of a 5 mg/ml MTT solution (MTT; Sigma, Germany) to each well and incubation for another 4 h, 100 μl/well of a 10% sodium dodecyl sulphate solution in 0.01 M hydrochloric acid were added and the plates were incubated overnight under the same conditions (stain development). Subsequently, the absorbance of each well at 540 nm (reference wavelength 690 nm) was recorded with an absorbance plate reader (Sunrise, Tecan, Switzerland). Blank control values (no drug, no cells) were subtracted from the sample values and the means of replicate wells for each drug dilution and the control (cells grown in absence of the drug) were used to calculate the extent of relative cell proliferation (as percentage of the control) and growth inhibition.

MOLM13 cells [3] = assay: MTT cell proliferation assay, MOLM13 cells; format: cell-based, human; settings: for Effect of auranofin and BSO low-dose combination on activity of NF-κB inhibitors, MOLM13: auranofin 0.25-0.5 μM plus BSO 1.25-10 μM with BAY 11-7082 or EF24
Protocol: as §1, with “For NF-κB family member activation assays nuclear cell extracts were used (9×10^6 cells/6 ml volume in 6 well plates).” left out

HL60 cells = assay: MTT cell proliferation assay, HL60 cells; format: cell-based, human; settings: 200 μM OU749, 10% HS
Protocol: For assessment of cytostatic and/or cytotoxic effects HL60 cells were washed in serum-free RPMI-1640 medium supplemented with 2 mM L-glutamine and 1% penicillin/streptomycin and diluted to 1.25×10^5/ml (logarithmic cell growth). Cells were incubated with OU749 for 10 minutes prior to addition of serum (FCS or HS, both 10%) to washed cells resulting in a density of 1.11×10^5/ml. For MTT-assays cell density was 1×10^4 cells per well (96 well plate).
The MTT or XTT assay is the most reliable for assessment of cell growth. In principal all assays are based on staining of viable cells after treatment. Cytotoxic effects in cell lines may also be assessed by [^3H] thymidine incorporation (see below). Cell proliferation was assessed by the MTT assay. After washing in serum-free medium, pre-incubation with inhibitors of the glutathione catabolism, and addition of defined serum or albumin or serum+albumin concentrations, 90-μl aliquots of the cell suspension (density see above) were dispensed into 96-well flat-bottomed microtitre plates containing 10 μl/well of serial drug dilutions. The plates were incubated for 72 h under standard conditions. After addition of 15 μl of a 5 mg/ml MTT solution (MTT; Sigma, Germany) to each well and incubation for another 4 h, 100 μl/well of a 10% sodium dodecyl sulphate solution in 0.01 M hydrochloric acid were added and the plates were incubated overnight under the same conditions (stain development). Subsequently, the absorbance of each well at 540 nm (reference wavelength 690 nm) was recorded with an absorbance plate reader (Sunrise, Tecan, Switzerland). Blank control values (no drug, no cells) were subtracted from the sample values and the means of replicate wells for each drug dilution and the control (cells grown in absence of the drug) were used to calculate the extent of relative cell proliferation (as percentage of the control) and growth inhibition. Since inhibitors were initially dissolved in DMSO, serial drug dilutions and controls were prepared to finally achieve 0.2% DMSO in all wells (total volume 100 μl); no anti-proliferative effects could be observed at this DMSO concentration in the investigated cell lines.
After washing in serum-free medium cells were diluted to desired density (3.70×10^5/ml for MEC1 and MOLM13, 1.25×10^5/ml for HL60) and HS and FCS was added both in a final concentration of 10%. Then 90-μl aliquots of the cell suspension (densities after addition of serum: 3.33×10^5/ml for MEC1 and MOLM13, 1.1×10^5/ml for HL60) were dispensed into 96-well flat-bottomed microtitre plates containing 10 μl/well of serial drug dilutions of NF-κB inhibitors. The cell concentrations in the 96 well plate were: 3×10^4/well for MEC1 and MOLM13, 1×10^4/well for HL60.
Then 90-μl aliquots of the cell suspension (densities after addition of serum: 3.33×10^5/ml for MEC1 and MOLM13, 1.1×10^5/ml for HL60) were dispensed into 96-well flat-bottomed microtitre plates containing 10 μl/well of serial drug dilutions of NF-κB inhibitors. The cell concentrations in the 96 well plates were: 3×10^4/well for MEC1 and MOLM13, 1×10^4/well for HL60.

MEC1 cells [4] = assay: Intracellular ROS/superoxide detection by flow cytometry, MEC1 cells; format: cell-based, human
Protocol: (§2) Intracellular ROS/superoxide levels were assessed by the ROS/superoxide Detection Assay Kit (ab139476, Abcam, Cambridge, UK) according to the manufacturer's protocol.
(§3) Cells were incubated with OU749 for 10 minutes prior to addition of serum or albumin (FCS or HS, both 10%, BSA or different HSA preparations as indicated), or albumin-supplemented FCS (supplementation with HSA or BSA: final albumin concentration 4-5 mg/ml). The final cell concentration was 1×10^5/ml/tube (volume 1 ml). Mean fluorescence intensities of at least 10000 events were assessed and compared.
(§4) ROS and superoxide levels were assessed by flow cytometry using the cellular ROS/superoxide Detection Assay Kit (ab139476, Abcam, Cambridge, UK) according to the manufacturer's protocol. […] Mean fluorescence intensities of at least 10000 events were assessed and compared.

MOLM13 cells [5] = assay: Intracellular ROS/superoxide detection by flow cytometry, MOLM13 cells; format: cell-based, human
Protocol: as §2, §3, §4

[6] = test system: NF-κB family of transcription factors (p65, p50, c-Rel, p52 and RelB); assay: NF-κB family member activation (TransAM, nuclear extracts), MEC1 cells; format: cell-based, human; settings: 200 μM OU749, 10% HS, 4 h
Protocol: (§5) After 4 h incubation with defined concentrations of inhibitors of the NF-κB signalling pathway with or without co-incubation with OU749, nuclear extracts were prepared using the AM nuclear extract kit (Active Motif, La Hulpe, Belgium) according to the manufacturer's protocol. Protein concentration of the respective extracts was measured according to the Bradford method and 10 μg of total protein per preparation was used for assessment of the NF-κB family member activation.
(§6) For the assessment of NF-κB family member activation (p65, p50, c-Rel, p52 and RelB) the TransAM® NF-κB Family Transcription Factor Assay kit was applied (Active Motif, La Hulpe, Belgium) according to the manufacturer's instructions. Results were expressed as relative activation levels (relative to the activation of DMSO controls either in the presence of 10% FCS or 10% HS) and compared between different experimental settings.

[7] = test system: NF-κB family of transcription factors (p65, p50, c-Rel, p52 and RelB); assay: NF-κB family member activation (TransAM, nuclear extracts), MOLM13 cells; format: cell-based, human; settings: 200 μM OU749, 10% HS, 4 h
Protocol: as §5, §6

[8] = OU749 100 μM for 10% FCS, 200 μM for 10% HS or BSA/HSA 20 mg/ml, versus DMSO
[9] = with BAY 11-7082, 10% FCS (to a lesser extent 10% HS), versus H2O

C/C(O)=C(\C#N)C(=O)Nc1ccc(C(F)(F)F)cc1 [A77 726]
Achievable plasma concentrations of the active metabolite of leflunomide [1]: about 176 μg/ml; also recorded: about 635 μM

CCCCS(=N)(=O)CCC(N)C(=O)O (centres unmarked) [BSO, buthionine sulfoximine]
Effect of auranofin and BSO low-dose combination on activity of NF-κB inhibitors, MEC1 (MEC1 cells [2]; 10% HS): enhance/restore the activity of NF-κB inhibitors | Effect of auranofin and BSO low-dose combination on activity of NF-κB inhibitors, MOLM13 (MOLM13 cells [3]; 10% HS): enhance/restore the activity of NF-κB inhibitors

COc1ccc(Cc2nnc(NS(=O)(=O)c3ccccc3)s2)cc1 [OU749, N-[5-(4-methoxybenzyl)-1,3,4-thiadiazol-2-yl]benzenesulfonamide]
Toxic effects of OU749 in HS-supplemented systems, MEC1 (MEC1 cells [2]; 200 μM OU749, 10% HS): no toxic effects | OU749 concentration above which anti-proliferative effects are apparent, MEC1, 10% FCS (MEC1 cells [2]; 10% FCS, 72 h, single agent): above 50 μM | OU749 concentration at which anti-proliferative effects appear, MEC1, 10% HS (MEC1 cells [2]; 10% HS, 72 h, single agent): ≥ 200 µM | Toxic effects of OU749 in HS-supplemented systems, MOLM13 (MOLM13 cells [3]; 200 μM OU749, 10% HS): no toxic effects | OU749 concentration above which anti-proliferative effects are apparent, MOLM13, 10% FCS (MOLM13 cells [3]; 10% FCS, 72 h, single agent): above 50 μM | OU749 concentration at which anti-proliferative effects appear, MOLM13, 10% HS (MOLM13 cells [3]; 10% HS, 72 h, single agent): ≥ 200 µM | Toxic effects of OU749 in HS-supplemented systems, HL60 (HL60 cells): no toxic effects | ROS levels, OU749 versus DMSO, MEC1 in HS medium (MEC1 cells [4]; 200 μM OU749, 10% HS): enhanced ROS levels | Intracellular ROS levels, OU749 in presence of serum and albumin, MEC1 (MEC1 cells [4]; [8]): increases intracellular ROS levels | ROS levels, OU749 versus DMSO, MOLM13 in HS medium (MOLM13 cells [5]; 200 μM OU749, 10% HS): enhanced ROS levels | Intracellular ROS levels, OU749 in presence of serum and albumin, MOLM13 (MOLM13 cells [5]; [8]): increases intracellular ROS levels | Nuclear levels of NF-κB transcription factors, OU749 alone in HS, MEC1 [6]: increased nuclear levels of different members of the NF-κB family of transcription factors | Nuclear levels of NF-κB transcription factors, OU749 alone in HS, MOLM13 [7]: increased nuclear levels of different members of the NF-κB family of transcription factors

CC(=O)OC[C@H]1O[C@@H]([S-])[C@H](OC(C)=O)[C@@H](OC(C)=O)[C@@H]1OC(C)=O.CCP(CC)CC.[Au+] [auranofin]
Effect of auranofin and BSO low-dose combination on activity of NF-κB inhibitors, MEC1 (MEC1 cells [2]; 10% HS): enhance/restore the activity of NF-κB inhibitors | Effect of auranofin and BSO low-dose combination on activity of NF-κB inhibitors, MOLM13 (MOLM13 cells [3]; 10% HS): enhance/restore the activity of NF-κB inhibitors

N[C@@H](CS)C(=O)NCC(=O)O [cysteinyl-glycin]
Effect of cysteinyl-glycin on activity of NF-κB inhibitors, MEC1 (MEC1 cells [2]; [9]): decrease the activity of NF-κB inhibitors | Effect of cysteinyl-glycin on activity of NF-κB inhibitors, MOLM13 (MOLM13 cells [3]; [9]): decrease the activity of NF-κB inhibitors
